Series [1] in a line: Clearance of proET-1 peptides after i.v. bolus in anaesthetised rats. The series is classed as in vivo, rat. Here is the method: To examine whether circulating half-lives influenced plasma levels of proET-1 peptides clearance rates were investigated in anaesthetised rats. […] Based on a circulating blood volume of 7.2 ± 0.3 ml per 100 g body weight, a mean weight of 345 ± 6 g and hematocrit of 40–60%, the hypothetical maximum plasma concentrations were 23–35 pmol/ml. However, the levels of NT-proET-1, ELDP and CT-proET-1 30 s after injection were 0.29 ± 0.02, 3.65 ± 0.23, and 11.74 ± 0.64 pmol/ml, respectively. Relative to estimates for dilution in circulating blood, these values represent ≈1%, 10–16%, and 34–51% of administered peptide for NT-proET-1, ELDP and CT-proET-1. Moreover, NT-proET-1 was almost completely cleared from the circulation in <5 min (estimated initial t½ < 20 s).
Figure 5 Comparison of clearance rates of NT-proET-1, ELDP and CT-proET-1 in anaesthetised rats. A bolus dose containing 1 nmol/kg of each proET-1 peptide as a combined solution prepared in 0.9% saline/0.1% BSA was administered i.v. and heparinised arterial blood samples (0.5 ml) were collected at 0.5, 1, 2, 5, 10, 20 and 40 min after administration of proET-1 peptides. NT-proET-1 (mauve circles), ELDP (red circles) and CT-proET-1 (blue circles) were measured by magnetic bead-based multiplex assays using Luminex methodology (values are mean ± SD, except where SD is less than the symbol size).
A multiplexed immunoassay system was used for simultaneous measurement of NT-proET-1, ELDP and CT-proET-1 in small volumes of rat plasma. Capture antibodies were conjugated to magnetic beads (region 45 – NT-proET-1, region 36 – ELDP, and region 27 – CT-proET-1) following standard protocols (Luminex Corporation). For assay capture antibody-coated magnetic beads were diluted as a premixed combination (10 µl/well) and incubated overnight at 4 °C on an orbital plate mixer with plasma (15 µl) and assay buffer (135 µl). For detection, beads were washed using a ring magnet plate washer before adding 25 µl of combined biotinylated detection antibodies and incubating for 2 h at room temperature on an orbital plate mixer.
All experiments were conducted according to the Animals (Scientific Procedures) Act 1986, UK, and approved by the UK Home Office. Clearance rates of proET-1 peptides and blood pressure effects of ELDP were determined in male Wistar rats (Charles River) anaesthetised with sodium thiopentone (120 mg/kg i.p.). Peptides were administered i.v. via a polyethylene catheter in the left femoral vein. Blood samples (0.5 ml) were collected from a catheter in the left carotid artery into chilled 1.5 ml microcentrifuge tubes containing 50 U/5 µl of heparin. Samples were centrifuged at 12,000 rpm for 2 min at 4 °C. Plasma (50 µl aliquots) samples were stored at −80 °C for subsequent analyses. Blood pressure and heart rate were recorded from the left carotid artery via a polyethylene catheter using Labchart 7.1 (AD Instruments Ltd).

A short description of series [2]: RP-HPLC elution position of synthetic proET-1 peptides. The conditions noted are these: ACE-5 C4 300 Å, 5 µm, 4.6 × 250 mm, 1 ml/min, 0.1% TFA – 10% solvent B (80% CH3CN with 0.1% TFA) over 2 min, then 10–30% B over 50 min, 1 min fractions, absorbance at 280 nm and immunoassay. The series is classed as physicochemical. Here is the method: Figure 2 Size exclusion chromatography of peptide precipitates from (A) EA.hy 926 and (B) A549 cell lines, (C) cation exchange chromatography of conditioned media from EA.hy 926, and HPLC characterisation of pro-ET-1 peptides from EA.hy 926 cells – (D) NT-proET-1, (E) ELDP and (F) CT-proET-1. (A) and (B) proendothelin-1 peptides from EA.hy 926 and A549 cell lines were subjected to size exclusion chromatography (column 1.6 × 100 cm, Sephadex G50 superfine) equilibrated at 4 °C with 0.1 M NaCl containing 0.01 M HCl. Fractions were subjected to immunoassay for ppET-1[42–50] (open circles) and ppET-1[93–102] (closed circles). Elution positions of adrenomedullin (ADM, M r 6029), big ET-1 (bET-1, M r 4283) and ET-1 (M r 2492) are indicated. […] ELDP (red columns) and CT-proET-1 (blue columns) were measured using immunoassays. […]
ProET-1 peptides were subjected to reverse phase HPLC on C4 silica (15 µm, 300 Å pore, 1 × 25 cm; Jupiter® Phenomenex) with gradient elution at 2 ml/min: 0.1% TFA – 15% solvent B (80% CH3CN with 0.1% TFA) over 2 min, followed by 15–60% B over 45 min. […] Synthetic peptides were used to characterise elution positions of NT-proET-1, ELDP and CT-proET-1 on this second HPLC system by monitoring absorbance at 280 nm and immunoassay of fractions. […]

[3] abbreviates: rat, 1 nmol/kg i.v. bolus, plasma sampled 0.5–40 min, two-phase clearance.

Here are results for one sequence from paper PMC5503984, “Characterisation of preproendothelin-1 derived peptides identifies Endothelin-Like Domain Peptide as a modulator of Endothelin-1” (Scientific Reports, 2017).

For the sequence “ALENLLPTKATDRENRCQCASQKDKKCWNFCQAGKELRAEDIMEKDWNNHKKGKDCSKLGKKCIYQQLVRGRKI (disulfide (positions not given here)) [ELDP]”, the “plasma level 30 s after injection” value in series [1] (anaesthetised male Wistar rats, bolus 1 nmol/kg i.v. of each peptide as a combined solution in 0.9% saline/0.1% BSA, arterial plasma, Luminex multiplex immunoassay, mean ± SD) was 3.65 ± 0.23 nM. Besides, in series [1] (setting [3]), the “estimated t½, phase 1” value is listed as 0.5 min and the “estimated t½, phase 2” value is 5.7 min. In addition, the “plasma level at 30 s as % of administered peptide, relative to estimates for dilution in circulating blood” value in series [1] (rat, 1 nmol/kg i.v., hypothetical maximum plasma concentration 23–35 pmol/ml) is on record as 10–16%. Also, the “elution position on RP-HPLC (fraction number)” value in series [2] was 45 fraction.
